From article PMC8468039, “Development of New Meridianin/Leucettine-Derived Hybrid Small Molecules as Nanomolar Multi-Kinase Inhibitors with Antitumor Activity” (Biomedicines, 2021)

What was measured:
[1] = molecular target: T1, FMS (Homo sapiens, UniProt P07333); assay: In vitro kinase inhibition assay (HotSpot, Reaction Biology); assay type: biochemical; settings: single dose of 10 µM; 10 µM ATP as printed; read-out: Percent Inhibition, FMS
T1 construct: purchased Reaction Biology Corp
Experimental: (§1) The in vitro kinase inhibition assay was carried out by Reaction Biology Corp. (Reaction Biology Corp., Chester, PA, USA) Kinase HotSpot^SM service (http://www.reactionbiology.com, accessed on 15 January 2021), following the previously reported methods. (For details, see Supplementary Material).
(§2) As mentioned in the introduction, to get insights about the kinase inhibition profile of the hybrid small molecule 5a, an in vitro screening over a panel of 14 cancer-related kinases was carried out. Accordingly, 10 µM concentrations of compound 5a were used in a kinase inhibition assay over various kinase groups and families in the presence of 10 µM ATP using HotSpotSM technology. To get a comprehensive picture of the inhibitory activities of the tested compound (5a) against the kinase panel, data are illustrated in Table 1. […] Compound 5a was also able to suppress the kinase activity of the epidermal growth factor receptor (EGFR), platelet-derived growth factor receptor-alpha (PDGFRα), and cyclin-dependent kinase 2 (CDK2) with modest inhibition values of 26.99 ± 0.9, 24.0 ± 0.4, and 20.1 ± 0.1%, respectively. […] Several studies have confirmed direct relationships between the most affected kinases (FMS, LCK, LYN, and DAPK1) and different human disorders including cancer.
(§3) 5. Protocol of Kinase assay
(§4) Kinases inhibitory activities were assessed by the HotSpot assay platform, which contained specific kinase/substrate pairs along with required cofactors. Base reaction buffer: 20 mM Hepes (pH 7.5), 10 mM MgCl2, 1 mM EGTA, 0.02% Brij35, 0.02 mg/ml BSA, 0.1 mM Na3VO4, 2 mM DTT, 1% DMSO. Testing compounds were dissolved in 100% DMSO to specific concentration. The serial dilution was conducted by Integra Viaflo Assist in DMSO. The reaction mixture containing the examined compound and 33P-ATP was incubated at room temperature for 2h and radioactivity was detected by filter-binding method. Kinase activity data were expressed as the percent remaining kinase activity in test samples compared to vehicle (dimethyl sulfoxide) reactions. IC50 values and curve fits were obtained using Prism (GraphPad Software).

[2] = molecular target: T2, DAPK1 (Homo sapiens, UniProt P53355); assay: as above; assay type: biochemical; settings: single dose of 10 µM; read-out: Percent Inhibition, DAPK1
T2 construct: purchased Reaction Biology Corp
T2 sequence (P53355 whole entry): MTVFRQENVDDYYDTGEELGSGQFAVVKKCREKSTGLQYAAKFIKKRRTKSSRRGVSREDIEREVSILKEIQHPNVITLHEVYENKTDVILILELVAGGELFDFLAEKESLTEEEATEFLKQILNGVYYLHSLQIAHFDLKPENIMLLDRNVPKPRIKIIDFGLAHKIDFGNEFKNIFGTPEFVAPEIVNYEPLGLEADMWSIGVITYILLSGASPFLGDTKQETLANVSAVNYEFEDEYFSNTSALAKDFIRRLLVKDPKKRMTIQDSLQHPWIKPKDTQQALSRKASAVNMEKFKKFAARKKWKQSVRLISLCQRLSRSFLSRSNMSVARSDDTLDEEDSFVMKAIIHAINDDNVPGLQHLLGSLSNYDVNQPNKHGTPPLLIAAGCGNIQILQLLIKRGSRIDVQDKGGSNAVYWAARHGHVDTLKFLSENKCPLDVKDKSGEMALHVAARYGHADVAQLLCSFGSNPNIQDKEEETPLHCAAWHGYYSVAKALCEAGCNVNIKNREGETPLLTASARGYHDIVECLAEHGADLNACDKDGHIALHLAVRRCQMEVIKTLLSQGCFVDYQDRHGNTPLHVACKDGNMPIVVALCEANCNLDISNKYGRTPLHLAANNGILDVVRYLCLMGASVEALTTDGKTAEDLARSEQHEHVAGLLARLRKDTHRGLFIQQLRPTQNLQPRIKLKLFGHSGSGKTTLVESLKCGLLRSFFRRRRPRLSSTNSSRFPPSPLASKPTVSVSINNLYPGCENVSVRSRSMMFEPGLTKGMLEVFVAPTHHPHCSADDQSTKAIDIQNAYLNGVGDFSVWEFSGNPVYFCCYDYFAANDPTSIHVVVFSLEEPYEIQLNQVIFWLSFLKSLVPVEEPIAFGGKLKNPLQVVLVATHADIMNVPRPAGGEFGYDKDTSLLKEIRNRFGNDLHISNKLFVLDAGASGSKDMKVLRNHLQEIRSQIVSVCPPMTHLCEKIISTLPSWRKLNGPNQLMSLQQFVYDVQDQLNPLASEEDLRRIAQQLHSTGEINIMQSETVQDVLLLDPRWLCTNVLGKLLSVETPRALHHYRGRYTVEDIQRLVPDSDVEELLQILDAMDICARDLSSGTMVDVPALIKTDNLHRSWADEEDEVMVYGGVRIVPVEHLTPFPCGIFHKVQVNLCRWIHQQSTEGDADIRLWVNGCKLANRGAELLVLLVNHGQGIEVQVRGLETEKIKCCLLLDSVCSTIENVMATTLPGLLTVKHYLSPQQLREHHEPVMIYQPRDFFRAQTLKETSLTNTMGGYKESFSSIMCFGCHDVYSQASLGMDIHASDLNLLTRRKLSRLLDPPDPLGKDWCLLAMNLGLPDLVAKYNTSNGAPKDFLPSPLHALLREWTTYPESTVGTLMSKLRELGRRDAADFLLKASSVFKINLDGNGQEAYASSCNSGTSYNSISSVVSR
Experimental: as §1, §2, §3, §4
(§5) 6. Biology raw data for IC50 determination
(§6) Paper ID Cpd ID NSC Number

[3] = molecular target: T3, LCK (Homo sapiens, UniProt P06239); assay: as above; assay type: biochemical; settings: single dose of 10 µM; 10 µM ATP as printed; read-out: Percent Inhibition, LCK
T3 construct: purchased Reaction Biology Corp
T3 sequence (P06239 whole entry): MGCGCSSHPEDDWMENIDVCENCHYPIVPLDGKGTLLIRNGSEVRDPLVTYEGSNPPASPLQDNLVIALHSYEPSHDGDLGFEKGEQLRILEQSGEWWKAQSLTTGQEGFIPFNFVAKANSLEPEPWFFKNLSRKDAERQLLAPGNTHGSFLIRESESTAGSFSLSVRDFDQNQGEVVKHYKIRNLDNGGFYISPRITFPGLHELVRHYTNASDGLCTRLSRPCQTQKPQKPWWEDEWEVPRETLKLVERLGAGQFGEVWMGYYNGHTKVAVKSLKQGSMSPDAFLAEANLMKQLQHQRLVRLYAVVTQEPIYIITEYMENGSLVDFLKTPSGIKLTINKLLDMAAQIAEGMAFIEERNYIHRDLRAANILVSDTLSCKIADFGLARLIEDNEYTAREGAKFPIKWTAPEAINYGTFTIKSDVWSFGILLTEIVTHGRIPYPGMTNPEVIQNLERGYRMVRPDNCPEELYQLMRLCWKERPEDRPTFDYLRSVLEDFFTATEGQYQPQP
Experimental: as §1, §2, §3, §4, §5, §6

[4] = molecular target: T4, LYN (Homo sapiens, UniProt P07948); assay: as above; assay type: biochemical; settings: single dose of 10 µM; 10 µM ATP as printed; read-out: Percent Inhibition, LYN
T4 construct: purchased Reaction Biology Corp
T4 sequence (P07948 whole entry): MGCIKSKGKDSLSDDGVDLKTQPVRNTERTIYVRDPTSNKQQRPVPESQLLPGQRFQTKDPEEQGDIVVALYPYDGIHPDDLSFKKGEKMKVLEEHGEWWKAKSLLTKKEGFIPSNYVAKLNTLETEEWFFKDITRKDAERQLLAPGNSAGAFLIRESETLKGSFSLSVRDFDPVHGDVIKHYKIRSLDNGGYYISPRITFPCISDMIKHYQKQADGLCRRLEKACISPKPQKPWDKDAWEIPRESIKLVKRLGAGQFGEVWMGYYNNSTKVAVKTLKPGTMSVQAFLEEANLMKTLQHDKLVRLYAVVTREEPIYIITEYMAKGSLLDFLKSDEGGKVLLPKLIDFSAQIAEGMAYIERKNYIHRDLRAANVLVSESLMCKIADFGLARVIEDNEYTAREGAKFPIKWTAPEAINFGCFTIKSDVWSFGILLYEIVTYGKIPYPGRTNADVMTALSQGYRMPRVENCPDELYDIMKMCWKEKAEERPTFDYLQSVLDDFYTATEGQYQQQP
Experimental: as §1, §2, §3, §4, §5, §6

[5] = system: 786-0; assay: NCI growth inhibition (SRB) assay; assay type: cell-based; settings: Homo sapiens, 786-0, Renal Cancer, single dose 10 µM, 48 h, read-out: Percent Growth Inhibition (GI)
Experimental: (§7) The antitumor assay was performed according to the protocol of the Drug Evaluation Branch, NCI, Bethesda. A 48 h drug exposure protocol was adopted, and sulforhodamine B (SRB) assay was utilized to assess the cell growth and viability, as reported earlier.
(§8) The inhibition results of tumor cell growth by the newly synthesized compounds (5a–5g) are described in Table 4. The reported measurements have been performed at the NIH National Cancer Institute, USA by a standardized assay including a panel of 60 different tumor cell lines (Supplementary Data). The following cancer cell types were included in these assays: Leukemia, non-small cell lung cancer, colon cancer, CNS cancer, melanoma, ovarian cancer, renal cancer, prostate, and breast cancer. […] Additionally, the 3,4-dimethoxy substituted compound (5b) also suffered poor activity against the cancer cell lines.

[6] = system: A498; assay: NCI growth inhibition (SRB) assay; assay type: cell-based; settings: Homo sapiens, A498, Renal Cancer, single dose 10 µM, 48 h, read-out: Percent Growth Inhibition (GI)
Experimental: as §7, §8

[7] = system: ACHN; assay: NCI growth inhibition (SRB) assay; assay type: cell-based; settings: Homo sapiens, Renal Cancer, single dose 10 µM, 48 h, read-out: Percent Growth Inhibition (GI)
Experimental: as §7, §8

[8] = system: HCT-116; assay: NCI growth inhibition (SRB) assay; assay type: cell-based; settings: Homo sapiens, HCT-116, Colon Cancer, single dose 10 µM, 48 h, read-out: Percent Growth Inhibition (GI)
Experimental: as §7, §8

[9] = system: HCT-15; assay: NCI growth inhibition (SRB) assay; assay type: cell-based; settings: Homo sapiens, HCT-15, Colon Cancer, single dose 10 µM, 48 h, read-out: Percent Growth Inhibition (GI)
Experimental: as §7, §8

[10] = system: HL-60(TB); assay: NCI growth inhibition (SRB) assay; assay type: cell-based; settings: Homo sapiens, Leukemia, single dose 10 µM, 48 h, read-out: Percent Growth Inhibition (GI)
Experimental: as §7, §8

[11] = system: HS 578T; assay: NCI growth inhibition (SRB) assay; assay type: cell-based; settings: Homo sapiens, Breast Cancer, single dose 10 µM, 48 h, read-out: Percent Growth Inhibition (GI)
Experimental: as §7, §8

[12] = system: HT29; assay: NCI growth inhibition (SRB) assay; assay type: cell-based; settings: Homo sapiens, HT-29, HT29, Colon Cancer, single dose 10 µM, 48 h, read-out: Percent Growth Inhibition (GI)
Experimental: as §7, §8

[13] = system: KM12; assay: NCI growth inhibition (SRB) assay; assay type: cell-based; settings: Homo sapiens, KM12, Colon Cancer, single dose 10 µM, 48 h, read-out: Percent Growth Inhibition (GI)
Experimental: as §7, §8

[14] = system: MOLT-4; assay: NCI growth inhibition (SRB) assay; assay type: cell-based; settings: Homo sapiens, MOLT-4, Leukemia, single dose 10 µM, 48 h, read-out: Percent Growth Inhibition (GI)
Experimental: as §7, §8

[15] = system: NCI-H522; assay: NCI growth inhibition (SRB) assay; assay type: cell-based; settings: Homo sapiens, NCI-H522, Non-Small Cell Lung Cancer, single dose 10 µM, 48 h, read-out: Percent Growth Inhibition (GI)
Experimental: as §7, §8

[16] = system: PC-3; assay: NCI growth inhibition (SRB) assay; assay type: cell-based; settings: Homo sapiens, PC-3, Prostate Cancer, single dose 10 µM, 48 h, read-out: Percent Growth Inhibition (GI)
Experimental: as §7, §8

[17] = system: RPMI-8226; assay: NCI growth inhibition (SRB) assay; assay type: cell-based; settings: Homo sapiens, RPMI-8226, Leukemia, single dose 10 µM, 48 h, read-out: Percent Growth Inhibition (GI)
Experimental: as §7, §8

[18] = system: SR; assay: NCI growth inhibition (SRB) assay; assay type: cell-based; settings: Homo sapiens, Leukemia, single dose 10 µM, 48 h, read-out: Percent Growth Inhibition (GI)
Experimental: as §7, §8

[19] = system: T-47D; assay: NCI growth inhibition (SRB) assay; assay type: cell-based; settings: Homo sapiens, T47D, Breast Cancer, single dose 10 µM, 48 h, read-out: Percent Growth Inhibition (GI)
Experimental: as §7, §8

[20] = system: UACC-62; assay: NCI growth inhibition (SRB) assay; assay type: cell-based; settings: Homo sapiens, UACC-62, Melanoma, single dose 10 µM, 48 h, read-out: Percent Growth Inhibition (GI)
Experimental: as §7, §8

T1 sequence (P07333 20-972): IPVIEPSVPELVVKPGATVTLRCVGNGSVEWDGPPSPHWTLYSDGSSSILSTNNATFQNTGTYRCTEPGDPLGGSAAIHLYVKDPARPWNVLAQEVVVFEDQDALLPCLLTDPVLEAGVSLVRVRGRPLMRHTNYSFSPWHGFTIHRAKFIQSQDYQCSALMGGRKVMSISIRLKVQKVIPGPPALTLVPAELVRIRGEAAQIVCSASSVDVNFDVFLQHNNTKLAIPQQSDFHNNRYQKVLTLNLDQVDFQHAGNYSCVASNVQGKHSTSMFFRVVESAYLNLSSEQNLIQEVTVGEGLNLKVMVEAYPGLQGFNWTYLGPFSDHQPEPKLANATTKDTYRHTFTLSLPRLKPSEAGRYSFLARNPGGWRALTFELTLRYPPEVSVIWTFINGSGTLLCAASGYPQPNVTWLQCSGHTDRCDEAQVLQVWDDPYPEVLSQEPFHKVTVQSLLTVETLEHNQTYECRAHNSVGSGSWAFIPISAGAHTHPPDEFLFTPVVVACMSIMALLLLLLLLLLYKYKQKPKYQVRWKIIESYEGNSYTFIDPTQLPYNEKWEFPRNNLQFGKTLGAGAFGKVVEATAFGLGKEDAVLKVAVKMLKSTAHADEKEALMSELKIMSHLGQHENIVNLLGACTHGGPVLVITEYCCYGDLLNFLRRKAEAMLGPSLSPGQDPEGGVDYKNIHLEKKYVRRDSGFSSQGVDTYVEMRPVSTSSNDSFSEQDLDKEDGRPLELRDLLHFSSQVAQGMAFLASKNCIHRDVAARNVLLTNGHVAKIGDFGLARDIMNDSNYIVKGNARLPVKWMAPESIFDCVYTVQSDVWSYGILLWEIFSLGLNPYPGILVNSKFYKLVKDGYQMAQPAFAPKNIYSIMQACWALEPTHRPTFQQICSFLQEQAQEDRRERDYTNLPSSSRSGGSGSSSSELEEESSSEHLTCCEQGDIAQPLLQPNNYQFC

COc1ccc(Oc2nc(Nc3ccc(N4CCOCC4)cc3)ncc2NC(=O)c2cc(OC)c(OC)c(OC)c2)cc1 [5c, 3,4,5-Trimethoxy-N-(4-(4-methoxyphenoxy)-2-((4-morpholinophenyl)amino)pyrimidin-5-yl)benzamide]
inhibition at 10 µM [1]: 69.9 ± 0.4% | inhibition at 10 µM [2]: 50 ± 0.1% | inhibition at 10 µM [3]: 19.4 ± 0.9% | inhibition at 10 µM [4]: -1.6 ± 0.3% | inhibition at 10 µM [5]: 44.2% | inhibition at 10 µM [6]: 38.3% | inhibition at 10 µM [7]: 4.83% | inhibition at 10 µM [8]: 23.9% | inhibition at 10 µM [9]: 34.4% | inhibition at 10 µM [10]: 31% | inhibition at 10 µM [11]: 3.23% | inhibition at 10 µM [12]: 47.4% | inhibition at 10 µM [13]: 3.99% | inhibition at 10 µM [14]: 31.6% | inhibition at 10 µM [15]: 2.25% | inhibition at 10 µM [16]: 11.6% | inhibition at 10 µM [17]: 18.8% | inhibition at 10 µM [18]: 64.4% | inhibition at 10 µM [19]: 0.52% | inhibition at 10 µM [20]: -0.63%
